Common to all, as to format: in vivo
Experiment [1] deals with foxtail, giant (giant foxtail, Setaria faberi). Kind of experiment: Test A preemergence, giant foxtail. As to conditions: pre-emergence, 240 h, 0 to 100 scale, 10 days, read-out: Plant response rating, Foxtail, Giant; for pest or weed control at 31 g/ha: 31 g ai/ha; for pest or weed control at 125 g/ha: 125 g ai/ha. From the text: (§1) Seeds of plant species selected from barnyardgrass (Echinochloa crus-galli), blackgrass (Alopecurus myosuroides), corn (Zea mays), foxtail, giant (giant foxtail, Setaria faberi), goosegrass (Eleusine indica), kochia (Bassia scoparia), oat, wild (wild oat, Avena fatua), pigweed, palmer (palmer amaranth, Amaranthus palmeri), pigweed, redroot (redroot pigweed, Amaranthus retroflexus), ragweed (common ragweed, Ambrosia artemisiifolia), ryegrass, Italian (Italian ryegrass, Lolium multiflorum), soybean (Glycine max), and wheat (Triticum aestivum) were planted into a blend of loam soil and sand and treated preemergence with a directed soil spray using test chemicals formulated in a non-phytotoxic solvent mixture which included a surfactant.
(§2) At the same time, plants selected from these crop and weed species and also galium (catchweed bedstraw, Galium aparine) and horseweed (Erigeron canadensis) were planted in pots containing the same blend of loam soil and sand and treated with postemergence applications of test chemicals formulated in the same manner. Plants ranged in height from 2 to 10 cm and were in the one- to two-leaf stage for the postemergence treatment. Treated plants and untreated controls were maintained in a greenhouse for 10 days, after which time all treated plants were compared to untreated controls and visually evaluated for injury. Plant response ratings, summarized in Table A, are based on a 0 to 100 scale where 0 is no effect and 100 is complete control. A dash (-) response means no test result.

Experiment [2] concerns wheat (Triticum aestivum). Kind of experiment: Test A postemergence, wheat. As to conditions: post-emergence, 240 h, 0 to 100 scale, 10 days, read-out: Plant response rating, Wheat; for plant injury at 31 g/ha: 31 g ai/ha; for plant injury at 125 g/ha: 125 g ai/ha.
From the text: as §1, §2

The subject of experiment [3] is galium (catchweed bedstraw, Galium aparine). Kind of experiment: Test A postemergence, galium. As to conditions: post-emergence, 240 h, 0 to 100 scale, 10 days, read-out: Plant response rating, Galium; for pest or weed control at 31 g/ha: 31 g ai/ha; for pest or weed control at 125 g/ha: 125 g ai/ha.
From the text: as §1, §2

The test system of experiment [4] is rice (Oryza sativa). Kind of experiment: Test B flooded paddy test, rice. As to conditions: 250 g ai/ha, Flood, scale of 0 to 100 where 0 is no effect and 100 is complete control, visually evaluated after 10 to 14 days, read-out: Plant response rating, Rice. As to the method:
(§3) Plant species in the flooded paddy test selected from barnyardgrass (Echinochloa crusgalli), ducksalad (Heteranthera limosa), rice (Oryza sativa), and sedge, umbrella (small-flower umbrella sedge, Cyperus difformis) were grown to the 2-leaf stage for testing. At time of treatment, test pots were flooded to 3 cm above the soil surface, treated by application of test compounds directly to the paddy water, and then maintained at that water depth for the duration of the test. Treated plants and controls were maintained in a greenhouse for 10 to 14 days, after which time all species were compared to controls and visually evaluated. Plant response ratings, summarized in Table B, are based on a scale of 0 to 100 where 0 is no effect and 100 is complete control. A dash (-) response means no test result.

Experiment [5] has as its system sedge, umbrella (small-flower umbrella sedge, Cyperus difformis). Kind of experiment: Test B flooded paddy test, umbrella sedge. As to conditions: 250 g ai/ha, Flood, scale of 0 to 100 where 0 is no effect and 100 is complete control, visually evaluated after 10 to 14 days, read-out: Plant response rating, Sedge, Umbrella. The procedure: as §3
In experiment [6] the test system is wheat (Triticum aestivum). Kind of experiment: Test A preemergence, wheat. As to conditions: 0 to 100 scale, 10 days.
From the text: as §1, §2

Experiment [7] concerns goosegrass (Eleusine indica). Kind of experiment: Test A postemergence, goosegrass. As to conditions: 0 to 100 scale, 10 days.
From the text: as §1, §2

The structures appear in SMILES notation.

Results on eight molecules are retold here after patent publication US20240158348A1, “HERBICIDAL CYCLIC AMIDES N-SUBSTITUTED WITH A HALOALKYLSULFONYLANILIDE GROUP” (FMC Corporation, priority 2021, published 2024).

Consider `C#CCOC1CCN(c2cc(NS(=O)(=O)C(F)(F)F)c(C)cc2C)C1=O` (stereo not shown) [Compound 1, N-[2,4-dimethyl-5-[2-oxo-3-(2-propyn-1-yloxy)-1-pyrrolidinyl]phenyl]-1,1,1-trifluoromethanesulfonamide], for which, in experiment [1], the pest or weed control at 31 g/ha was 90% and the pest or weed control at 125 g/ha stood at 100%. In addition, in experiment [2], the plant injury at 31 g/ha turned out to be 60% and the plant injury at 125 g/ha was 70%. Besides, in experiment [3], the pest or weed control at 31 g/ha turned out to be 80% and the pest or weed control at 125 g/ha was determined as 100%. For the same molecule, in experiment [4], the plant injury at 250 g/ha worked out at 30%. Moreover, in experiment [5], the pest or weed control at 250 g/ha was 90%.
As for `C=CCOC1CCN(c2cc(NS(=O)(=O)C(F)(F)F)c(C)cc2C)C1=O` (stereo not shown) [Compound 2, N-[2,4-dimethyl-5-[2-oxo-3-(2-propen-1-yloxy)-1-pyrrolidinyl]phenyl]-1,1,1-trifluoromethanesulfonamide], in experiment [1], the pest or weed control at 31 g/ha was determined as 100% and the pest or weed control at 125 g/ha is 100%. Also, in experiment [2], the plant injury at 31 g/ha was 70% and the plant injury at 125 g/ha turned out to be 70%. Moreover, in experiment [3], the pest or weed control at 31 g/ha was determined as 80% and the pest or weed control at 125 g/ha came to 100%. For the same molecule, the plant injury at 250 g/ha in experiment [4] was 10%. Further, the pest or weed control at 250 g/ha in experiment [5] came out at 85%.
With `Cc1cc(C)c(N2CCC(OC3CC3)C2=O)cc1NS(=O)(=O)C(F)(F)F` (stereo not shown) [Compound 3, N-[5-[3-(cyclopropyloxy)-2-oxo-1-pyrrolidinyl]-2,4-dimethylphenyl]-1,1,1-trifluoromethanesulfonamide], the pest or weed control at 31 g/ha in experiment [1] came to 100%; in experiment [3] it was 70%. The pest or weed control at 125 g/ha in experiment [1] and in experiment [3] was 100% in each case. The “Plant response rating, Wheat” value in experiment [6] (31 g ai/ha) and in experiment [6] (125 g ai/ha) was 100 throughout. For the same molecule, the “Plant response rating, Goosegrass” value in experiment [7] (31 g ai/ha) was 80; in experiment [7] (125 g ai/ha), 90. The plant injury at 31 g/ha in experiment [2] was 80%. In addition, the plant injury at 125 g/ha in experiment [2] came to 80%. Further, in experiment [4], the plant injury at 250 g/ha is 50%. In experiment [5], the pest or weed control at 250 g/ha was 98%.
With `Cc1cc(C)c(N2CCC(OC3CCC3)C2=O)cc1NS(=O)(=O)C(F)(F)F` (stereo not shown) [Compound 4, N-[5-[3-(cyclobutyloxy)-2-oxo-1-pyrrolidinyl]-2,4-dimethylphenyl]-1,1,1-trifluoromethanesulfonamide], the pest or weed control at 31 g/ha in experiment [1] and in experiment [3] was 100% each time. Moreover, the pest or weed control at 125 g/ha in experiment [1] and in experiment [3] was 100% throughout. Also, the “Plant response rating, Wheat” value in experiment [6] (31 g ai/ha) is recorded as 70; in experiment [6] (125 g ai/ha), 100. The results for the “Plant response rating, Goosegrass” value in experiment [7] (31 g ai/ha) and in experiment [7] (125 g ai/ha) were 70 and 90, respectively. For the same molecule, in experiment [2], the plant injury at 31 g/ha came out at 50%. Also, the plant injury at 125 g/ha in experiment [2] is 50%. For the same molecule, in experiment [4], the plant injury at 250 g/ha is 0%. Moreover, the pest or weed control at 250 g/ha in experiment [5] turned out to be 100%.
In the case of `Cc1cc(C)c(N(COC(=O)C(C)(C)C)S(=O)(=O)C(F)(F)F)cc1N1CCC(OC2CCCC2)C1=O` (stereo not shown) [Compound 5, [[5-[3-(cyclopentyloxy)-2-oxo-1-pyrrolidinyl]-2,4-dimethylphenyl][(trifluoromethyl)sulfonyl]amino]methyl 2,2-dimethylpropanoate], the pest or weed control at 31 g/ha in experiment [1] was found to be 0%; in experiment [3], 60%. Also, the pest or weed control at 125 g/ha in experiment [1] came to 50%; in experiment [3], 90%. Also, the “Plant response rating, Wheat” value in experiment [6] (31 g ai/ha) is 0; in experiment [6] (125 g ai/ha), 20. In addition, the “Plant response rating, Goosegrass” value in experiment [7] (31 g ai/ha) came out at 50; in experiment [7] (125 g ai/ha), 90. Also, the plant injury at 31 g/ha in experiment [2] turned out to be 0%. In experiment [2], the plant injury at 125 g/ha worked out at 50%. Besides, the plant injury at 250 g/ha in experiment [4] stood at 0%. In addition, in experiment [5], the pest or weed control at 250 g/ha stood at 85%.
`Cc1cc(C)c(N2CCC(OC3CCCC3)C2=O)cc1NS(=O)(=O)C(F)(F)F` (stereo not shown) [Compound 6, N-[5-[3-(cyclopentyloxy)-2-oxo-1-pyrrolidinyl]-2,4-dimethylphenyl]-1,1,1-trifluoromethanesulfonamide]: the results for the pest or weed control at 31 g/ha in experiment [1] and in experiment [3] were 100% and 80%, respectively. In addition, the results for the pest or weed control at 125 g/ha in experiment [1] and in experiment [3] were 100% and 90%, respectively. The entries for the “Plant response rating, Wheat” value in experiment [6] (31 g ai/ha) and in experiment [6] (125 g ai/ha) were 80 and 100, respectively. Besides, the entries for the “Plant response rating, Goosegrass” value in experiment [7] (31 g ai/ha) and in experiment [7] (125 g ai/ha) were 80 and 90, respectively. Besides, in experiment [2], the plant injury at 31 g/ha turned out to be 60%. Besides, the plant injury at 125 g/ha in experiment [2] is 60%. Further, the plant injury at 250 g/ha in experiment [4] was 10%. Besides, the pest or weed control at 250 g/ha in experiment [5] was 75%.
`Cc1cc(C)c(N(COC(=O)C(C)(C)C)S(=O)(=O)C(F)(F)F)cc1N1CCC(OC2CC2)C1=O` (stereo not shown) [Compound 7, [[5-[3-(cyclopropyloxy)-2-oxo-1-pyrrolidinyl]-2,4-dimethylphenyl][(trifluoromethyl)sulfonyl]amino]methyl 2,2-dimethylpropanoate]: the pest or weed control at 31 g/ha in experiment [1] and in experiment [3] was 90% each time. For the same molecule, the values for the pest or weed control at 125 g/ha in experiment [1] and in experiment [3] were 90% and 100%, respectively. Besides, the “Plant response rating, Wheat” value in experiment [6] (31 g ai/ha) came to 0; in experiment [6] (125 g ai/ha), 80. The “Plant response rating, Goosegrass” value in experiment [7] (31 g ai/ha) and in experiment [7] (125 g ai/ha) was 90 throughout. The plant injury at 31 g/ha in experiment [2] amounted to 30%. In addition, in experiment [2], the plant injury at 125 g/ha stood at 60%. Also, the plant injury at 250 g/ha in experiment [4] is 30%. Further, the pest or weed control at 250 g/ha in experiment [5] amounted to 90%.
For the molecule `Cc1cc(C)c(N(COC(=O)C(C)(C)C)S(=O)(=O)C(F)(F)F)cc1N1CCC(OC2CCC2)C1=O` (stereo not shown) [Compound 8, [[5-[3-(cyclobutyloxy)-2-oxo-1-pyrrolidinyl]-2,4-dimethylphenyl][(trifluoromethyl)sulfonyl]amino]methyl 2,2-dimethylpropanoate], the pest or weed control at 31 g/ha in experiment [1] is 90%; in experiment [3], 100%. Further, the pest or weed control at 125 g/ha in experiment [1] and in experiment [3] was 100% throughout. For the same molecule, the “Plant response rating, Wheat” value is reported as 0 in experiment [6] (31 g ai/ha) and 50 in experiment [6] (125 g ai/ha). The “Plant response rating, Goosegrass” value was 80 in experiment [7] (31 g ai/ha) and 90 in experiment [7] (125 g ai/ha). The plant injury at 31 g/ha in experiment [2] worked out at 60%. The plant injury at 125 g/ha in experiment [2] was determined as 70%. The plant injury at 250 g/ha in experiment [4] was 35%. For the same molecule, in experiment [5], the pest or weed control at 250 g/ha came out at 95%.
